Molecules are shown by their SMILES.

Experiment [1] concerns the target T1, creatine kinase (CK) in human serum (Homo sapiens, UniProt P06732).
T1 construct: Five fresh human serum samples were used; from tissue; host or cells: fresh human serum
Nature of the experiment: Inhibitory effect of oxidized products of SH compounds on CK activity (HK/G6PDH UV method, NAC 26 mM as reactivator). The format is biochemical. Particulars: for CK activity value: NAC 26 mM, 37° C. How it is done:
Investigation on the inhibitory effect of oxidized products of SH compounds on CK activity
Thus, oxidized products of the SH compounds, respectively, were obtained.
NAC (26 mM) as CK reactivator, each 5 mM of SH compound oxidized product obtained above, 2.6 mM of ADP, 3.9 u/ml of HK (available from Oriental Yeast Co., Ltd.), 8.0 u/ml of G6PDH (available from Oriental Yeast Co., Ltd.), 2.6 mM of NADP, 21 mM of glucose, 10 mM of magnesium acetate, 6.5 mM of AMP, 0.013 mM of APSA, 0.1% (w/v) of sodium azide and 2 mM of EDTA-2Na were dissolved in 128 mM imidazole-acetate buffer (pH 6.7). The thus obtained solutions were adjusted to pH 6.7 with sodium hydroxide to obtain enzyme solutions.
An enzyme solution containing no SH compound oxidized product was prepared as a control standard solution.
Five fresh human serum samples were used.
To 8 μl of each sample was added 320 μl of each enzyme solution, followed by preincubation for 5 minutes. Then, 80 μl of the substrate solution was added to initiate the reaction and the change of absorbance per minute was measured for 3 minutes from 2 minutes after the addition of the substrate solution. The CK activity value was calculated from the molecular extinction coefficient of the NADPH produced.
As a measuring apparatus, an Autoanalyzer Hitachi Model 7150 was used, and the measurement was carried out at 37° C. by use of dual wavelength (λ1 =405 nm, λ2 =340 nm).
Tables 2 and 3 show the CK activity values of the 5 samples in each case and the average thereof.

In experiment [2] the test system is CK activity. The conditions noted are these: Scand. J. Clin. Lab. Invest. 39, 737-742 (1979); cited from earlier work.

T1 sequence (P06732 whole entry): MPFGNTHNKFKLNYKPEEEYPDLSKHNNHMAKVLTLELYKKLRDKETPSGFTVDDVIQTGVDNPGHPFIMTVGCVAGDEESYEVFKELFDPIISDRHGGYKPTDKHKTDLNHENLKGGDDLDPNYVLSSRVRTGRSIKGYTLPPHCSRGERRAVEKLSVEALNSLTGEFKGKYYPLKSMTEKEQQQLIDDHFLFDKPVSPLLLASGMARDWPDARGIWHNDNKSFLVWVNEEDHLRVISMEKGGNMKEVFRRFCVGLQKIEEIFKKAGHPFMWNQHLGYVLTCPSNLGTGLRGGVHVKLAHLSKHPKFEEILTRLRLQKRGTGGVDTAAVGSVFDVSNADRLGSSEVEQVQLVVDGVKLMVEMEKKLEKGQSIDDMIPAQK

As for `CC(=O)N[C@@H](CSSC[C@H](NC(C)=O)C(=O)O)C(=O)O` [NAC oxidized product], the CK activity value amounted to 124 IU/l in experiment [1] (Sample 1 (fresh human serum), 5 mM SH compound oxidized product); 342 IU/l in experiment [1] (Sample 2, 5 mM SH compound oxidized product); 87 IU/l in experiment [1] (Sample 3, 5 mM SH compound oxidized product); 272 IU/l in experiment [1] (Sample 4, 5 mM SH compound oxidized product); 80 IU/l in experiment [1] (Sample 5, 5 mM SH compound oxidized product). Further, in experiment [1] (average of 5 samples, 5 mM SH compound oxidized product), the “CK activity value, Average” value was found to be 181 IU/l. Further, the activity at 5000 µM in experiment [1] (average with enzyme solution containing no SH compound oxidized product = 100%, 5 mM oxidized product, read-out: CK activity, relative value) turned out to be 80.1%. Also, the “effect on CK activity” value in experiment [2] is listed as “inhibits CK activity”.

The values above are taken from patent US5716797A, “Stable two-part reagent for the measurement of creatine kinase activity” (Wako Pure Chemical Industries, Ltd., priority 1995, dated 1998).
